Data taken from ChEMBL document CHEMBL1147620, “Estrogen receptor ligands. Part 1: The discovery of flavanoids with subtype selectivity” (Bioorg Med Chem Lett, 2004).
pIC50: −log10 of the molar value.

Tests used:
[1] = target: Estrogen receptor beta (Homo sapiens, UniProt Q92731)
Description: Binding affinity against human estrogen receptor beta (ER beta) in competitive binding assay

[2] = target: T1, Estrogen receptor (Homo sapiens, UniProt P03372)
T1 sequence (P03372 whole entry): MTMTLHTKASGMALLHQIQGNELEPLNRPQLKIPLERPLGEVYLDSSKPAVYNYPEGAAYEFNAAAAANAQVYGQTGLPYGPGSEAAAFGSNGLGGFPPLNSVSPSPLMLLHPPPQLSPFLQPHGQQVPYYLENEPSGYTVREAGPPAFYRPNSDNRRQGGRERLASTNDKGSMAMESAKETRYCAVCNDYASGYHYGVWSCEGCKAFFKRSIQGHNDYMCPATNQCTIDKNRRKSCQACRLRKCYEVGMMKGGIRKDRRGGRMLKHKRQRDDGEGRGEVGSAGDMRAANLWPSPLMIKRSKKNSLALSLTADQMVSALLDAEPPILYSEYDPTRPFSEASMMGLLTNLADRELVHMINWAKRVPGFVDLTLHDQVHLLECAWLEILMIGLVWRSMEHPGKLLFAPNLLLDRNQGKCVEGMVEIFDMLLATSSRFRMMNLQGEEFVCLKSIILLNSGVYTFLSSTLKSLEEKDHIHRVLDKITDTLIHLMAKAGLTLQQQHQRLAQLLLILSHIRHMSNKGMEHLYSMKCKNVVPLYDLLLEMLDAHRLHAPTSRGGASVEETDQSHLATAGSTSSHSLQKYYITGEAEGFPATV
Description: Binding affinity against human estrogen receptor alpha in competitive binding assay

Sequence of Estrogen receptor beta (Q92731 whole entry): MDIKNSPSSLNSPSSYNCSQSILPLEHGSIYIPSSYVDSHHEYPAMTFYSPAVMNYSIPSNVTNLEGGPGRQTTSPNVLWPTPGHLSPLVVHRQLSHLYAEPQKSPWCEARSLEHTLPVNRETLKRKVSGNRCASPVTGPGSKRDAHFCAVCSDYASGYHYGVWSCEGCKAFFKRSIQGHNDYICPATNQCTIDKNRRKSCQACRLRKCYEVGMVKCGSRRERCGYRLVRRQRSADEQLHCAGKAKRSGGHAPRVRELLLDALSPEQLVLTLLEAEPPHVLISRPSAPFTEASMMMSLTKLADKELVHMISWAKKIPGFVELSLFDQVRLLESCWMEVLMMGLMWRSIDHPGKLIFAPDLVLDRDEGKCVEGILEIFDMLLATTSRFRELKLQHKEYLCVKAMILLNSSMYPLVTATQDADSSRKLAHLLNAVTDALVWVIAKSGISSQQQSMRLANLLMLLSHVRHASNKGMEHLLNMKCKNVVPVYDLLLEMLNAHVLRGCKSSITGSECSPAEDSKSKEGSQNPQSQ

SMILES	pIC50 [1]	pIC50 [2]
O=C1c2ccc(O)cc2O[C@H](c2ccc(OCCN3CCCCC3)cc2)[C@@H]1c1ccccc1	5.00	6.27
COc1cc(O)ccc1[C@@H]1C(=O)c2ccc(O)cc2O[C@@H]1c1ccc(OCCN2CCCCC2)cc1	5.87	6.83
Oc1ccc([C@@H]2Cc3ccc(O)cc3O[C@@H]2c2ccc(OCCN3CCCCC3)cc2)cc1	8.05	8.17
Cc1cc(O)cc2c1C(=O)[C@@H](c1ccc(O)cc1)[C@@H](c1ccc(OCCN3CCCCC3)cc1)O2	6.26	7.85
C[C@@H]1C(=O)c2c(O)cc(O)cc2O[C@@H]1c1ccc(OCCN2CCCCC2)cc1	5.92	6.26
O=C1c2ccc(O)cc2O[C@H](c2ccc(OCCN3CCCCC3)cc2)[C@H]1c1ccc(O)cc1	5.71	7.31
O=C1c2ccc(O)cc2O[C@H](c2ccc(OCCN3CCCCC3)cc2)[C@@H]1c1ccc(O)cc1	5.69	7.51
CCCCCc1cc(O)cc2c1C(=O)[C@@H](c1ccc(O)cc1)[C@@H](c1ccc(OCCN3CCCCC3)cc1)O2	6.34	7.15
O=C1c2ccc(O)cc2O[C@H](c2ccc(O)cc2)[C@@H]1c1ccc(O)cc1	6.22	6.31
COc1cc([C@@H]2C(=O)c3ccc(O)cc3O[C@@H]2c2ccc(OCCN3CCCCC3)cc2)ccc1O	< 5.00	6.38
O=C1c2c(Cl)cc(O)cc2O[C@H](c2ccc(OCCN3CCCCC3)cc2)[C@@H]1c1ccc(O)cc1	5.90	7.24

The remaining lines, values ahead:

pIC50 [1]	pIC50 [2]	SMILES
< 5.00	5.98	Cc1cc([C@@H]2C(=O)c3ccc(O)cc3O[C@@H]2c2ccc(OCCN3CCCCC3)cc2)cc(C)c1O
6.68	6.19	CCCc1cc(O)cc2c1C(=O)[C@@H](c1ccc(O)cc1)[C@@H](c1ccc(OCCN3CCCCC3)cc1)O2
5.15	6.03	Oc1ccc([C@H]2[C@@H](c3ccc(OCCN4CCCCC4)cc3)Oc3cc(O)ccc3[C@@H]2O)cc1
6.82	7.17	CCc1cc(O)cc2c1C(=O)[C@@H](c1ccc(O)cc1)[C@@H](c1ccc(OCCN3CCCCC3)cc1)O2
5.06	5.98	O/N=C1\c2ccc(O)cc2O[C@H](c2ccc(OCCN3CCCCC3)cc2)[C@@H]1c1ccc(O)cc1
5.25	5.45	C[C@@H]1C(=O)c2ccc(O)cc2O[C@@H]1c1ccc(OCCN2CCCCC2)cc1
5.92	7.05	CC(C)[C@@H]1C(=O)c2ccc(O)cc2O[C@@H]1c1ccc(OCCN2CCCCC2)cc1
< 5.00	5.85	C[C@H]1C(=O)c2ccc(O)cc2O[C@@H]1c1ccc(OCCN2CCCCC2)cc1
6.29	6.75	O=C1c2ccccc2O[C@H](c2ccc(OCCN3CCCCC3)cc2)[C@@H]1c1ccc(O)cc1
5.27	6.98	O=C1c2c(F)cc(O)cc2O[C@H](c2ccc(OCCN3CCCCC3)cc2)[C@@H]1c1ccc(O)cc1
6.03	6.96	CC(C)[C@H]1C(=O)c2ccc(O)cc2O[C@@H]1c1ccc(OCCN2CCCCC2)cc1
